{"source": "patent US11028095B2", "about": "“Spiro-lactam and bis-spiro-lactam NMDA receptor modulators and uses thereof” (Aptinyx Inc., priority 2016, dated 2021)", "key": {"[1]": {"experiment": "Microsomal stability (Human)", "format": "in vitro ADME", "conditions": "human microsomes", "protocol": "(§1) Microsomal stability of disclosed compounds was investigated. The following table indicates the percent of compound remaining after 60 minutes."}, "[2]": {"target": "T1, NMDAR2A expressing HEK cell membranes (Homo sapiens, UniProt Q05586+Q12879)", "T1 construct": "expressed in transfected cells; host or cells: HEK cells (membrane extract)", "T1 sequence (Q12879 23-1464, other chains not shown)": "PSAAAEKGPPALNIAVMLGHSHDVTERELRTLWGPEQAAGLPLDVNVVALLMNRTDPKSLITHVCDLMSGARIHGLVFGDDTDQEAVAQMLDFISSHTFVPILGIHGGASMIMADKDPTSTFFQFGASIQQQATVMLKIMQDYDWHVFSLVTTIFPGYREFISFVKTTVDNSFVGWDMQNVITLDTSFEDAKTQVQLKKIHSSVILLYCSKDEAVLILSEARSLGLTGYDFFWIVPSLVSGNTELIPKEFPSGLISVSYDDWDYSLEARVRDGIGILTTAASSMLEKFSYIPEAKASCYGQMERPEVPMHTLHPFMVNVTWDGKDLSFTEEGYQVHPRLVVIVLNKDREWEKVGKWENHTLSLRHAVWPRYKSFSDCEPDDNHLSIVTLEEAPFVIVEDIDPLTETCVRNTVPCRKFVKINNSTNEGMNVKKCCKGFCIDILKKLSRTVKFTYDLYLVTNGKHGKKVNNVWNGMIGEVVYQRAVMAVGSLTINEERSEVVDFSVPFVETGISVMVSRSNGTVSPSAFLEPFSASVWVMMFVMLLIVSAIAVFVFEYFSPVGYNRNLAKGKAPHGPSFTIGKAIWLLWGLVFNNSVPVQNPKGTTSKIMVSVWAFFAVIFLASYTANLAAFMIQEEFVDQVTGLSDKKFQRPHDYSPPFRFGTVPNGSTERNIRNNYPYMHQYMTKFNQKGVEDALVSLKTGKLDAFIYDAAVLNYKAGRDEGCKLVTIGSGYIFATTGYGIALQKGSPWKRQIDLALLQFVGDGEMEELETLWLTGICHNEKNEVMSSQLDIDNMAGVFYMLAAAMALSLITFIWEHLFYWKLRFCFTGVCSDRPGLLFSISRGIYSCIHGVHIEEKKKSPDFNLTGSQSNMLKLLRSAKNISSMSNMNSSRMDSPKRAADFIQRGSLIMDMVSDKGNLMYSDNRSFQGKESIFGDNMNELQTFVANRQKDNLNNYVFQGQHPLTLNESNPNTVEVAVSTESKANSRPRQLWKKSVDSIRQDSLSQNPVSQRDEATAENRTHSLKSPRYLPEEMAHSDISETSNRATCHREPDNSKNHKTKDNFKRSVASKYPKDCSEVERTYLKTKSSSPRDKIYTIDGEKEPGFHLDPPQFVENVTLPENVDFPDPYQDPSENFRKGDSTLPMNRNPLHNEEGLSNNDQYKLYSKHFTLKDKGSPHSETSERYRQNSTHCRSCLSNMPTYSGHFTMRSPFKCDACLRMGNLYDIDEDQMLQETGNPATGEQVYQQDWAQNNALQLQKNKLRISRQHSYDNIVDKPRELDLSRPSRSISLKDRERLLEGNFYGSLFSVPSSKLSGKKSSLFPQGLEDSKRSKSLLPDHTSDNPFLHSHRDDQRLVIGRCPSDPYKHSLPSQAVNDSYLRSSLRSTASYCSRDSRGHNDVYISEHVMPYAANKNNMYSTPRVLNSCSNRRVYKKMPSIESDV", "experiment": "NMDAR agonist assay, [3H]MK-801 binding, NMDAR2A", "format": "biochemical", "conditions": "50 μM glutamate", "protocol": "(§2) (nonequilibrium conditions).\n(§3) The baseline value was determined from the best fit curve of the DPM values modeled using the GraphPad program and the log(agonist) vs. response(three parameters) algorithm was then subtracted from all points in the dataset."}, "[3]": {"target": "T2, NMDAR2B expressing HEK cell membranes (Homo sapiens, UniProt Q05586+Q13224)", "T2 construct": "expressed in transfected cells; host or cells: HEK cells (membrane extract)", "T2 sequence (Q13224 27-1484, other chains not shown)": "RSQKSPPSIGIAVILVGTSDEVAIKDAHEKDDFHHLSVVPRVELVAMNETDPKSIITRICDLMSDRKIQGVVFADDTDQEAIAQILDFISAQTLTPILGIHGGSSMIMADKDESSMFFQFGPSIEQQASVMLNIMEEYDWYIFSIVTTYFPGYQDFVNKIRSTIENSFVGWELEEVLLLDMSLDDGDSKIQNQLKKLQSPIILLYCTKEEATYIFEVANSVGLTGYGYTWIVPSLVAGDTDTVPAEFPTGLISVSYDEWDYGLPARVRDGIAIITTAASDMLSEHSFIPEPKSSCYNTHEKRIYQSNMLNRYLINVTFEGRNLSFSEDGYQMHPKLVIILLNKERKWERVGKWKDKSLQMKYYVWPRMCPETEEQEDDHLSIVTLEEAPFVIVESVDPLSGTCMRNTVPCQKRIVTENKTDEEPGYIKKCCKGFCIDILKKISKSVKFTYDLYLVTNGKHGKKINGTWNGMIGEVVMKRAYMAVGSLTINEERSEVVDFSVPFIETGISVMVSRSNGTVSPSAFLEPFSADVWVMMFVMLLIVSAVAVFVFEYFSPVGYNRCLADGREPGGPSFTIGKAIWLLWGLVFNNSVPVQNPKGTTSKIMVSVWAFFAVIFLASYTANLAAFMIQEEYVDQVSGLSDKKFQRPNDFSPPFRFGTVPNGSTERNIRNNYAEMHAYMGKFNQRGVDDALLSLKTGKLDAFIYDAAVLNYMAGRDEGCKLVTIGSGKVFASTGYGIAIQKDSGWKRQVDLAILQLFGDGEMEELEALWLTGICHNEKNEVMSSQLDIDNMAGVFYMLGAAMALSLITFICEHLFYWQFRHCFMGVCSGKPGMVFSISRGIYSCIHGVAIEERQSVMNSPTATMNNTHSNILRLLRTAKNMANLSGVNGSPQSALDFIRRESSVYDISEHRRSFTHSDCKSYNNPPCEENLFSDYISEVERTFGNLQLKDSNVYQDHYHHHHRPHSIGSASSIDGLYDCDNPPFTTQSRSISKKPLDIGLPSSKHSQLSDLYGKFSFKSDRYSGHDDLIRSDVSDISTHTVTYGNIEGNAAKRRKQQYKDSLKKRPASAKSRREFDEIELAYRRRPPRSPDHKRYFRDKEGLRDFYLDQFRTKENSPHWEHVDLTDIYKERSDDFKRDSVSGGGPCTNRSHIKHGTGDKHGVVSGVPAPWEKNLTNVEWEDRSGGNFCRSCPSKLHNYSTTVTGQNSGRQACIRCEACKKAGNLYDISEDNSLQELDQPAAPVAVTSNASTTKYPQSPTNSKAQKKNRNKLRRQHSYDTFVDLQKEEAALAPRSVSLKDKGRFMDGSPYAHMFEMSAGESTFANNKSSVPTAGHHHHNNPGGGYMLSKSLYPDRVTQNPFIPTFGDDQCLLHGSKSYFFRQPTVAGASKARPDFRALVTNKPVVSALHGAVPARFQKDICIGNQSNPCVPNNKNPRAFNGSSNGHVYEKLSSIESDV", "experiment": "NMDAR agonist assay, [3H]MK-801 binding, NMDAR2B", "format": "biochemical", "conditions": "50 μM glutamate; for EC50: [3H]MK-801 binding, read-out: NMDAR2B log EC50 (converted)", "protocol": "as §2, §3"}, "Plasma stability (Human)": {"experiment": "Plasma stability (Human)", "format": "in vitro ADME", "protocol": "(§4) Plasma stability of disclosed compounds was investigated. The following table indicates the percent of compound remaining after 60 minutes."}, "[4]": {"target": "T3, NMDAR2D expressing HEK cell membranes (Homo sapiens, UniProt O15399+Q05586)", "T3 construct": "expressed in transfected cells; host or cells: HEK cells (membrane extract)", "T3 sequence (O15399 28-1336, other chains not shown)": "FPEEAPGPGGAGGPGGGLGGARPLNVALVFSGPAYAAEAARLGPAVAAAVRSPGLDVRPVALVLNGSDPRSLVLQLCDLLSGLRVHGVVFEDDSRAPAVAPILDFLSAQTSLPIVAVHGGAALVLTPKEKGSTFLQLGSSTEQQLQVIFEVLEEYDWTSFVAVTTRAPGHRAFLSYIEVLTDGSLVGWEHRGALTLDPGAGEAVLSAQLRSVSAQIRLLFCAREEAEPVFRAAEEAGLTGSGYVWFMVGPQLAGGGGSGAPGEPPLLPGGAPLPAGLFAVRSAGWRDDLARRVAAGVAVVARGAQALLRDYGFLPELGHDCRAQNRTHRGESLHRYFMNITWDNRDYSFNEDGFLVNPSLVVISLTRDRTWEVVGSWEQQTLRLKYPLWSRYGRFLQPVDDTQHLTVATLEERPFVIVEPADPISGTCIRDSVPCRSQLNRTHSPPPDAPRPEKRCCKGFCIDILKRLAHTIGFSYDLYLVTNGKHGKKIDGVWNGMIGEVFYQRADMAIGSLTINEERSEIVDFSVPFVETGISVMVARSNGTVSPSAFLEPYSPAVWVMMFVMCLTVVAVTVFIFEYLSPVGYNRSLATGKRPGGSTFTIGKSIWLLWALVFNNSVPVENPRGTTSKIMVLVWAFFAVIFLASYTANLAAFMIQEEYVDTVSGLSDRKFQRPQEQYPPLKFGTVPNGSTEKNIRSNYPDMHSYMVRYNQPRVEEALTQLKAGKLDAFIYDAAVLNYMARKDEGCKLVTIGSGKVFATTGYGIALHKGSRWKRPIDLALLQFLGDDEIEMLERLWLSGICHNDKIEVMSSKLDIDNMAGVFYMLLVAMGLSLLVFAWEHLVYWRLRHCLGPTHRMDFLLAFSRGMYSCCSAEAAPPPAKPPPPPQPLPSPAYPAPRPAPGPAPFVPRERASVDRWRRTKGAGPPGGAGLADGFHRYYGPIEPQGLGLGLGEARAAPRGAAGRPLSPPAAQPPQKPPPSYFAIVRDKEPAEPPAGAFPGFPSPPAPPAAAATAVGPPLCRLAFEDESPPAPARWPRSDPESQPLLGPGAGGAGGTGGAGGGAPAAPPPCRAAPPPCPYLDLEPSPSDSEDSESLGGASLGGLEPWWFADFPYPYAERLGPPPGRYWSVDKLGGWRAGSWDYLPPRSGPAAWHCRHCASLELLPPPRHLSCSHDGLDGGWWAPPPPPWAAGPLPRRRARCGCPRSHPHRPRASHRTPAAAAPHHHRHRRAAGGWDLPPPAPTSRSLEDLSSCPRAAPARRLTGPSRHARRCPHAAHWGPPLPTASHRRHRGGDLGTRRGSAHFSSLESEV", "experiment": "NMDAR agonist assay, [3H]MK-801 binding, NMDAR2D", "format": "biochemical", "conditions": "50 μM glutamate; [3H]MK-801 binding; read-out: NMDAR2D: log EC50 (converted)", "protocol": "as §2, §3"}, "[5]": {"target": "T4, NMDAR2D expressing HEK cell membranes (Homo sapiens, UniProt O15399)", "T4 construct": "expressed in transfected cells; host or cells: HEK cells (membrane extract)", "T4 sequence (O15399 28-1336, other chains not shown)": "as above", "experiment": "NMDAR agonist assay, [3H]MK-801 binding, NMDAR2D", "format": "biochemical", "conditions": "50 μM glutamate", "protocol": "as §2, §3"}, "[6]": {"experiment": "Microsomal stability (Rat)", "format": "in vitro ADME", "conditions": "rat microsomes", "protocol": "as §1"}, "[7]": {"tested_on": "positive (hedonic) 50-kHz ultrasonic vocalizations (USVs)", "experiment": "Positive Emotional Learning (PEL) test", "format": "in vivo", "conditions": "rat, PO, one hour after administration", "method_in_brief": "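Rats received test compound or vehicle (0.5% carboxymethyl cellulose in saline) 1 h before 3 min of experimenter-delivered rough-and-tumble play in alternating 15 s play and no-stimulation blocks. Frequency-modulated 50-kHz USVs during no-stimulation (CS) periods were counted; animals not habituated beforehand.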"}, "Plasma stability (Rat)": {"experiment": "Plasma stability (Rat)", "format": "in vitro ADME", "protocol": "as §4"}, "[8]": {"target": "T5, NMDAR2C expressing HEK cell membranes (Homo sapiens, UniProt Q05586+Q14957)", "T5 construct": "expressed in transfected cells; host or cells: HEK cells (membrane extract)", "experiment": "NMDAR agonist assay, [3H]MK-801 binding, NMDAR2C", "format": "biochemical", "conditions": "50 μM glutamate; [3H]MK-801 binding; read-out: NMDAR2C: log EC50 (converted)", "protocol": "as §2, §3"}, "[9]": {"target": "T6, NMDAR2C expressing HEK cell membranes (Homo sapiens, UniProt Q14957)", "T6 construct": "expressed in transfected cells; host or cells: HEK cells (membrane extract)", "experiment": "NMDAR agonist assay, [3H]MK-801 binding, NMDAR2C", "format": "biochemical", "conditions": "50 μM glutamate; relative to 1 mM glycine", "protocol": "as §2, §3"}, "[10]": {"target": "T7, NMDAR2A expressing HEK cell membranes (Homo sapiens, UniProt Q12879)", "T7 construct": "expressed in transfected cells; host or cells: HEK cells (membrane extract)", "experiment": "NMDAR agonist assay, [3H]MK-801 binding, NMDAR2A", "format": "biochemical", "conditions": "50 μM glutamate", "protocol": "as §2, §3"}, "[11]": {"experiment": "Oral pharmacokinetics (plasma, brain, CSF)", "format": "in vivo", "set-up": "Cmax: unit: ng/mL", "conditions": "Sprague Dawley rats, per os, 10 mg/kg", "protocol": "In another experiment, Sprague Dawley rats were dosed per os using a normal saline formulation containing 10 mg/kg of the compounds identified in the table below. Plasma, brain, and CSF samples were analyzed at various time points over a 24 hour period. The table below summarizes the results of the oral pharmacokinetics."}, "[12]": {"target": "T8, NMDAR2B expressing HEK cell membranes (Homo sapiens, UniProt Q13224)", "T8 construct": "expressed in transfected cells; host or cells: HEK cells (membrane extract)", "experiment": "NMDAR agonist assay, [3H]MK-801 binding, NMDAR2B", "format": "biochemical", "conditions": "50 μM glutamate; relative to 1 mM glycine", "protocol": "as §2, §3"}, "IV pharmacokinetics": {"experiment": "IV pharmacokinetics", "format": "in vivo", "set-up": "C0: unit: ng/mL", "conditions": "Sprague Dawley rats, 2 mg/kg, normal saline", "protocol": "Sprague Dawley rats were dosed intravenously using a normal saline formulation containing 2 mg/kg of the compounds identified in the below table. The table below summarizes the results of the IV pharmacokinetics."}, "[13]": {"conditions": "[3H]MK-801 binding, read-out: NMDAR2A: log EC50 (converted)"}}, "data": [{"smiles": "O=C1NCC12CCC1(CNC1=O)N2Cc1ccccc1", "note": "(single isomer, unassigned) [AC-2, 5-benzyl-2,5,8-triazadispiro[3.1.36.24]undecane-1,7-dione]", "values": [{"measurement": "Microsomal (Human): percent of compound remaining after 60 minutes", "setting": "[1]", "result": 98, "unit": "%"}, {"measurement": "EC50", "setting": "[2]; [13]", "result": "< 1", "unit": "nM"}, {"measurement": "Emax", "setting": "[2]; relative to 1 mM glycine, read-out: NMDAR2A: % maximal [3H]MK-801 binding relative to 1 mM glycine", "result": "< 100", "unit": "%"}, {"measurement": "EC50", "setting": "[3]", "result": "< 1", "unit": "nM"}, {"measurement": "Emax", "setting": "[3]; relative to 1 mM glycine, read-out: NMDAR2B: % maximal [3H]MK-801 binding relative to 1 mM glycine", "result": "< 100", "unit": "%"}, {"measurement": "Plasma (Human): percent of compound remaining after 60 minutes", "setting": "Plasma stability (Human)", "result": 94, "unit": "%"}, {"measurement": "EC50", "setting": "[4]", "result": "< 1", "unit": "nM"}, {"measurement": "NMDAR2D: % maximal [3H]MK-801 binding relative to 1 mM glycine", "setting": "[5]", "result": "+ (<100%=+)"}, {"measurement": "Microsomal (Rat): percent of compound remaining after 60 minutes", "setting": "[6]", "result": 100, "unit": "%"}, {"measurement": "Max Effect (mean number of 50 kHz USVs per 15 seconds)", "setting": "[7]; dose 0.001-1 mg/kg", "result": "* (*: 6-10.9)"}, {"measurement": "Plasma (Rat): percent of compound remaining after 60 minutes", "setting": "Plasma stability (Rat)", "result": 94, "unit": "%"}, {"measurement": "EC50", "setting": "[8]", "result": "< 1", "unit": "nM"}, {"measurement": "NMDAR2C A: % maximal [3H]MK-801 binding relative to 1 mM glycine", "setting": "[9]", "result": "+ (<100%=+)"}]}, {"smiles": "C[C@@H](O)[C@H](NC(=O)C1CCC2(CNC2=O)N1Cc1ccccc1)C(N)=O", "note": "(single isomer, unassigned) [AN]", "values": [{"measurement": "Microsomal (Human): percent of compound remaining after 60 minutes", "setting": "[1]", "result": 88, "unit": "%"}, {"measurement": "EC50", "setting": "[10]; [13]", "result": "< 1", "unit": "nM"}, {"measurement": "NMDAR2A: % maximal [3H]MK-801 binding relative to 1 mM glycine", "setting": "[10]; relative to 1 mM glycine", "result": "+ (<100%=+)"}, {"measurement": "% F", "setting": "[11]", "result": 3, "unit": "%"}, {"measurement": "AUClast", "setting": "[11]", "result": 126.32, "unit": "ng·h/mL"}, {"measurement": "CSF Cmax", "setting": "[11]; CSF", "result": 0, "unit": "ng/mL"}, {"measurement": "Brain Cmax", "setting": "[11]; brain", "result": 0, "unit": "ng/mL"}, {"measurement": "Tmax", "setting": "[11]; normal saline", "result": 0.42, "unit": "h"}, {"measurement": "Cmax", "setting": "[11]; plasma", "result": 38.9, "unit": "ng/mL"}, {"measurement": "NMDAR2B: % maximal [3H]MK-801 binding relative to 1 mM glycine", "setting": "[12]", "result": "+ (<100%=+)"}, {"measurement": "EC50", "setting": "[3]", "result": "< 1", "unit": "nM"}, {"measurement": "Plasma (Human): percent of compound remaining after 60 minutes", "setting": "Plasma stability (Human)", "result": 88, "unit": "%"}, {"measurement": "EC50", "setting": "[5]; [3H]MK-801 binding, read-out: NMDAR2D: log EC50 (converted)", "result": "< 1", "unit": "nM"}, {"measurement": "NMDAR2D: % maximal [3H]MK-801 binding relative to 1 mM glycine", "setting": "[5]", "result": "+ (<100%=+)"}, {"measurement": "Microsomal (Rat): percent of compound remaining after 60 minutes", "setting": "[6]", "result": 87, "unit": "%"}, {"measurement": "Max Effect (mean number of 50 kHz USVs per 15 seconds)", "setting": "[7]; dose 0.1 mg/kg", "result": "* (*: 6-10.9)"}, {"measurement": "AUClast", "setting": "IV pharmacokinetics", "result": 727.7, "unit": "ng·h/mL"}, {"measurement": "C0", "setting": "IV pharmacokinetics", "result": 3209.4, "unit": "ng/mL"}, {"measurement": "Cl", "setting": "IV pharmacokinetics", "result": 45.98, "unit": "mL/min/kg"}, {"measurement": "T1/2", "setting": "IV pharmacokinetics", "result": 4.67, "unit": "h"}, {"measurement": "Vss", "setting": "IV pharmacokinetics", "result": 2.45, "unit": "L/kg"}, {"measurement": "Plasma (Rat): percent of compound remaining after 60 minutes", "setting": "Plasma stability (Rat)", "result": 87, "unit": "%"}, {"measurement": "EC50", "setting": "[8]", "result": "< 1", "unit": "nM"}, {"measurement": "NMDAR2C A: % maximal [3H]MK-801 binding relative to 1 mM glycine", "setting": "[9]", "result": "+ (<100%=+)"}]}]}
